# From DBAASP
# Values joined by “and” are separate entries in the source; they are usually repeats but may differ in a detail not shown here. Equal entries are not always repeated.
# Legend:
# Test in all cases: ≥ marks a high value that may be exact or a test limit, other limits are often not marked, values filed in µg/mL are converted to µM
# [1] = system: Staphylococcus epidermidis ATCC 12228
# [2] = system: Escherichia coli ATCC 25922
# [3] = system: Staphylococcus aureus ATCC 29213
# [4] = system: Pseudomonas aeruginosa ATCC 27853
# Escherichia coli = system: Escherichia coli
# Pseudomonas aeruginosa = system: Pseudomonas aeruginosa
# Staphylococcus aureus = system: Staphylococcus aureus
Compound,MIC [2] [µM],MIC [3] [µM],MIC (Escherichia coli),further results
CC(C)C[C@H](NC(=O)[C@H](Cc1ccc(O)cc1)NC(=O)[C@H](Cc1ccc(O)cc1)NC(=O)CNC(=O)[C@H](Cc1c[nH]c2ccccc12)NC(=O)[C@H](CO)NC(=O)[C@H](CO)NC(=O)[C@H](Cc1c[nH]c2ccccc12)NC(=O)[C@H](CC(C)C)NC(=O)[C@H](CCCCN)NC(=O)[C@@H](NC(=O)[C@@H](NC(=O)[C@H](CC(C)C)NC(=O)[C@@H](N)CC(=O)O)[C@@H](C)O)[C@@H](C)O)C(=O)NCC(=O)O [DLTTKLWSSWGYYLG],,,,MIC [1]: 25 µM
CC[C@H](C)[C@H](NC(=O)[C@@H](NC(=O)[C@@H](N)Cc1ccccc1)[C@@H](C)CC)C(=O)N[C@@H](Cc1c[nH]c2ccccc12)C(=O)N1CCC[C@H]1C(=O)N[C@@H](CC(C)C)C(=O)N[C@@H](CCCN=C(N)N)C(=O)N[C@@H](Cc1ccc(O)cc1)C(=O)N[C@@H](CCCN=C(N)N)C(=O)N[C@@H](CCCCN)C(N)=O [FIIWPLRYRK],180,359,,
CC[C@H](C)[C@H](NC(=O)[C@H](CCCN=C(N)N)NC(=O)[C@H](CCC(N)=O)NC(=O)[C@@H](NC(=O)[C@H](C)NC(=O)[C@H](CCCN=C(N)N)NC(=O)[C@H](CCCCN)NC(=O)[C@@H](N)Cc1ccccc1)C(C)C)C(=O)N[C@@H](CCCCN)C(=O)N[C@@H](CC(=O)O)C(=O)N[C@@H](Cc1ccccc1)C(=O)N[C@@H](CC(C)C)C(=O)N[C@@H](CCCN=C(N)N)C(=O)O [FKRAVQRIKDFLR],5,> 40,,
CC[C@H](C)[C@H](NC(=O)[C@H](CCSC)NC(=O)[C@H](C)NC(=O)[C@@H]1CCCN1C(=O)[C@@H](NC(=O)[C@@H](NC(=O)[C@H](CCCCN)NC(=O)[C@@H](NC(=O)[C@H](CC(C)C)NC(=O)CN)[C@@H](C)CC)[C@@H](C)CC)C(C)C)C(=O)N[C@H]1CSSC[C@@H](C(=O)O)NC(=O)[C@H](CCCCN)NC(=O)[C@H](CCCCN)NC(=O)[C@H]([C@@H](C)O)NC(=O)[C@H](C(C)C)NC(=O)[C@H](C)NC1=O [GLIKIVPAMICAVTKKC],> 143,> 143,,MIC [4]: > 143 µM
CC[C@H](C)[C@H](N)C(=O)N[C@@H](CC(N)=O)C(=O)N[C@@H](Cc1c[nH]c2ccccc12)C(=O)N[C@@H](CCCCN)C(=O)N[C@@H](CCCCN)C(=O)N[C@H](C(=O)N[C@@H](Cc1ccccc1)C(=O)N[C@@H](CCC(=O)O)C(=O)N[C@@H](CCCCN)C(=O)N[C@H](C(=O)N[C@@H](CCCCN)C(=O)N[C@@H](CC(N)=O)C(=O)N[C@@H](CC(C)C)C(=O)N[C@H](C(N)=O)C(C)C)C(C)C)[C@@H](C)CC [INWKKIFEKVKNLV],,,7.5 µM and 6.25 µM and 3.12 µM,MIC (Pseudomonas aeruginosa): 86.6 µM; MIC (Staphylococcus aureus): 11.8 µM
CC(C)C[C@H](NC(=O)[C@H](CC(C)C)NC(=O)[C@H](C)NC(=O)[C@H](CCCCN)NC(=O)[C@H](C)NC(=O)[C@H](C)NC(=O)[C@H](C)NC(=O)[C@H](CC(C)C)NC(=O)[C@H](Cc1c[nH]c2ccccc12)NC(=O)[C@H](CCCCN)NC(=O)[C@H](C)NC(=O)[C@H](CC(C)C)NC(=O)[C@H](CC(C)C)NC(=O)[C@H](CCCCN)NC(=O)[C@H](CCCCN)NC(=O)[C@H](CC(C)C)NC(=O)[C@H](C)NC(=O)[C@@H](N)CCCCN)C(N)=O [KALKKLLAKWLAAAKALL],,,6.1 µM,MIC (Pseudomonas aeruginosa): 12.2 µM; MIC (Staphylococcus aureus): 1.5 µM
C[C@H](NC(=O)[C@H](C)NC(=O)[C@H](CCCCN)NC(=O)[C@H](C)NC(=O)[C@H](Cc1ccccc1)NC(=O)[C@H](Cc1c[nH]c2ccccc12)NC(=O)[C@H](CCCCN)NC(=O)[C@H](Cc1ccccc1)NC(=O)[C@H](CCCCN)NC(=O)[C@H](CCCCN)NC(=O)[C@H](C)NC(=O)[C@H](Cc1ccccc1)NC(=O)[C@@H](N)CCCCN)C(=O)N[C@@H](Cc1ccccc1)C(=O)N[C@@H](CCCCN)C(=O)N[C@@H](Cc1ccccc1)C(=O)N[C@@H](Cc1ccccc1)C(=O)N[C@@H](CCCCN)C(=O)N[C@@H](CCCCN)C(N)=O [KFAKKFKWFAKAAFKFFKK],,,7.23 µM,MIC (Staphylococcus aureus): 4.17 µM
CC(C)C[C@H](NC(=O)[C@H](C)NC(=O)[C@H](CC(C)C)NC(=O)[C@@H](N)CCCCN)C(=O)N[C@@H](CCCCN)C(=O)N[C@@H](C)C(=O)N[C@@H](C)C(=O)N[C@@H](CC(C)C)C(=O)N[C@@H](CCCCN)C(=O)N[C@@H](C)C(=O)N[C@@H](Cc1c[nH]c2ccccc12)C(=O)N[C@@H](CCCCN)C(=O)N[C@@H](C)C(=O)N[C@@H](C)C(=O)N[C@@H](C)C(=O)N[C@@H](CCCCN)C(=O)N[C@@H](CC(C)C)C(=O)N[C@@H](C)C(N)=O [KLALKAALKAWKAAAKLA],,,7.78 µM,MIC (Pseudomonas aeruginosa): 45 µM; MIC (Staphylococcus aureus): 45 µM
CC[C@H](C)[C@H](NC(=O)[C@H](CCCN=C(N)N)NC(=O)[C@@H](NC(=O)[C@H](CCCN=C(N)N)NC(=O)[C@H](CCC(N)=O)NC(=O)[C@H](Cc1cnc[nH]1)NC(=O)[C@@H](NC(=O)[C@H](CCCN=C(N)N)NC(=O)[C@H](CCCN=C(N)N)NC(=O)[C@H](CCCCN)NC(=O)[C@H](CCCN=C(N)N)NC(=O)[C@H](CCCCN)NC(=O)[C@H](CO)NC(=O)[C@H](CCCN=C(N)N)NC(=O)[C@@H](N)CCCCN)[C@@H](C)CC)C(C)C)C(=O)N[C@@H](CO)C(=O)O [KRSKRKRRIHQRVRIS],> 23.8,,> 23.8 µM,
CC[C@H](C)[C@H](NC(=O)[C@H](Cc1ccccc1)NC(=O)[C@H](CO)NC(=O)[C@H](CCCCN)NC(=O)[C@H](Cc1c[nH]c2ccccc12)NC(=O)[C@@H](N)CCCCN)C(=O)N[C@@H](CCCCN)C(=O)N[C@@H](CCCCN)C(=O)N[C@@H](CC(C)C)C(=O)N[C@H](C(=O)N[C@@H](CO)C(=O)N[C@@H](CCCCN)C(=O)N[C@@H](Cc1ccccc1)C(=O)N[C@@H](CC(C)C)C(=O)N[C@@H](Cc1cnc[nH]1)C(=O)N[C@@H](CO)C(=O)N[C@@H](CCCCN)C(=O)N[C@@H](CCCCN)C(=O)N[C@@H](CCCCN)C(=O)N[C@@H](Cc1ccccc1)C(N)=O)[C@@H](C)O [KWKSFIKKLTSKFLHSKKKF],,,,MIC (Pseudomonas aeruginosa): 4.98 µM
CC(C)C[C@H](NC(=O)[C@H](C)NC(=O)[C@H](CCCCN)NC(=O)[C@H](CCCCN)NC(=O)[C@@H](N)CC(C)C)C(=O)N[C@@H](CCCCN)C(=O)N[C@@H](CC(C)C)C(=O)N[C@@H](CC(C)C)C(=O)N[C@@H](CCCCN)C(=O)N[C@@H](CCCCN)C(=O)N[C@@H](CC(C)C)C(=O)N[C@@H](CC(C)C)C(=O)N[C@@H](CCCCN)C(=O)N[C@@H](CC(C)C)C(=O)N[C@@H](C)C(=O)NCC(=O)O [LKKALKLLKKLLKLAG],5,5,,
CC(C)C[C@H](NC(=O)[C@H](CCCCN)NC(=O)[C@H](CC(C)C)NC(=O)[C@H](CC(C)C)NC(=O)[C@H](CCCCN)NC(=O)[C@H](CCCCN)NC(=O)[C@H](CC(=O)O)NC(=O)[C@H](CC(C)C)NC(=O)[C@H](CCCCN)NC(=O)[C@H](CC(C)C)NC(=O)[C@H](CC(C)C)NC(=O)[C@H](CCCCN)NC(=O)[C@H](CCCCN)NC(=O)[C@@H](N)CC(C)C)C(=O)N[C@@H](C)C(=O)NCC(=O)O [LKKLLKLDKKLLKLAG],10,> 40,,
CC(C)C[C@H](NC(=O)[C@H](C)NC(=O)[C@H](CCCCN)NC(=O)[C@H](CCCCN)NC(=O)[C@H](CC(C)C)NC(=O)[C@H](CC(C)C)NC(=O)[C@H](CCCCN)NC(=O)[C@H](CC(C)C)NC(=O)[C@H](CC(C)C)NC(=O)[C@H](CCCCN)NC(=O)[C@H](CCCCN)NC(=O)[C@@H](N)CC(C)C)C(=O)N[C@@H](CCCCN)C(=O)N[C@@H](CC(C)C)C(=O)N[C@@H](C)C(=O)NCC(=O)O [LKKLLKLLKKALKLAG],5,5,,
CC(=O)N[C@@H](CC(C)C)C(=O)N[C@@H](CCCCN)C(=O)N[C@@H](CCCCN)C(=O)N[C@@H](CC(C)C)C(=O)N[C@@H](CC(C)C)C(=O)N[C@@H](CCCCN)C(=O)N[C@@H](CC(C)C)C(=O)N[C@@H](CC(C)C)C(=O)N[C@@H](CCCCN)C(=O)N[C@@H](CCCCN)C(=O)N1CCC[C@H]1C(=O)N[C@@H](CC(C)C)C(=O)N[C@@H](CCCCN)C(=O)N[C@@H](CC(C)C)C(N)=O [LKKLLKLLKKPLKL],28.3,40,,
CC(=O)N[C@@H](CC(C)C)C(=O)N[C@@H](CCCCN)C(=O)N[C@@H](CCCCN)C(=O)N[C@@H](CC(C)C)C(=O)N[C@@H](CC(C)C)C(=O)N[C@@H](CCCCN)C(=O)N[C@@H](CC(C)C)C(=O)N1CCC[C@H]1C(=O)N[C@@H](CCCCN)C(=O)N[C@@H](CCCCN)C(=O)N[C@@H](CC(C)C)C(=O)N[C@@H](CC(C)C)C(=O)N[C@@H](CCCCN)C(=O)N[C@@H](CC(C)C)C(N)=O [LKKLLKLPKKLLKL],56.6,> 80,,
CC[C@H](C)[C@H](NC(=O)[C@H](Cc1c[nH]c2ccccc12)NC(=O)[C@H](CCCCN)NC(=O)[C@@H](NC(=O)[C@H](CC(C)C)NC(=O)[C@H](CCCCN)NC(=O)CNC(=O)[C@@H](NC(=O)[C@@H](NC(=O)[C@H](CO)NC(=O)[C@@H](NC(=O)[C@@H](NC(=O)[C@H](CCCCN)NC(=O)[C@H](CCC(N)=O)NC(=O)[C@H](C)NC(=O)[C@@H](N)CCSC)[C@@H](C)CC)[C@@H](C)CC)[C@@H](C)O)[C@@H](C)CC)C(C)C)C(=O)N[C@H](C(=O)N[C@@H](CCCCN)C(=O)N[C@H](C(=O)N[C@H](C(=O)N[C@@H](CC(N)=O)C(=O)N[C@@H](CCCCN)C(=O)N[C@@H](Cc1ccccc1)C(=O)N[C@H](C(=O)N[C@@H](CCCCN)C(=O)N[C@@H](CCCCN)C(=O)O)[C@@H](C)O)C(C)C)[C@@H](C)O)[C@@H](C)CC [MAQKIISTIGKLVKWIIKTVNKFTKK],,,3.8 µM,MIC (Staphylococcus aureus): 20 µM
CC[C@H](C)[C@H](NC(=O)[C@H](CCCN=C(N)N)NC(=O)[C@H](CCC(=O)O)NC(=O)[C@H](CCCCN)NC(=O)[C@H](CCC(=O)O)NC(=O)[C@H](CCCCN)NC(=O)[C@H](CO)NC(=O)[C@H](CC(C)C)NC(=O)[C@@H](N)[C@@H](C)O)C(=O)N[C@H](C(=O)N[C@@H](CCC(N)=O)C(=O)N[C@@H](CCCN=C(N)N)C(=O)N[C@H](C(=O)N[C@@H](CCCN=C(N)N)C(=O)N[C@H](C(=O)N[C@@H](CO)C(=O)O)[C@@H](C)O)C(C)C)C(C)C [TLSKEKERIVQRVRTS],> 25.9,,> 25.9 µM,
